# Values of other authors as cited in US20110086369A1, “FLUORESCENT COMPOUNDS FOR THE DIAGNOSIS OF INFECTIONS, PRODUCTION METHOD, AND APPLICATIONS THEREOF” (priority 2008, published 2011).
# Test system: Leishmania
# Conditions: in Leishmania
smiles,measurement,value
"CCCCCCCCCCCCCCCCOP(=O)([O-])OCC[N+](C)(C)C [MT, hexadecylphosphocholine]",intracellular concentration,values in the millimolar rank
